# Data published in US20230312587A1, “PTERIDINONE COMPOUNDS AND USES THEREOF” (Vertex Pharmaceutical Incorporated, priority 2018, published 2023).
# Test system: β-catenin-TCF-mediated reporter transcription activity in Colo 205 cells
# Experiment: Colo 205 reporter assay (TCF/LEF luciferase)
# Type: cell-based
# Conditions: Homo sapiens, COLO 205, 5 h, Colo 205 TCF/LEF luciferase reporter, five hours after addition of compound; read-out: TCF reporter Colo205 IC50
# Summary of the method: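 Luciferase signal from a TCF/LEF-driven reporter, stably integrated in Colo 205 colon cancer cells, was measured 5 h after compound addition.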
row,SMILES,IC50
1,"COc1ccc(O[C@H]2C[C@H](Nc3nc(C)c4c(n3)N(C)[C@@H](C)C(=O)N4C)C2)c(F)c1 [Compound 355, (7S)-2-((trans-3-(2-fluoro-4-methoxyphenoxy)cyclobutyl)amino)-4,5,7,8-tetramethyl-7,8-dihydropteridin-6(5H)-one]",1000 to 5000 nM
2,"Cc1ccc(O[C@H]2C[C@H](Nc3nc(C)c4c(n3)N(C)[C@@H](C)C(=O)N4C)C2)cc1 [Compound 338, (7S)-4,5,7,8-tetramethyl-2-((trans-3-(p-tolyloxy)cyclobutyl)amino)-7,8-dihydropteridin-6(5H)-one]",1000 to 5000 nM
3,"Cc1nc(N[C@H]2C[C@H](Oc3cc(F)c(F)c(F)c3)C2)nc2c1N(CC(F)(F)F)C(=O)[C@H](C)N2C [Compound 313, (7S)-4,7,8-trimethyl-5-(2,2,2-trifluoroethyl)-2-((trans-3-(3,4,5-trifluorophenoxy)cyclobutyl)-amino)-7,8-dihydropteridin-6(5H)-one]",≥ 5000 nM
4,"C[C@H]1C(=O)Nc2cnc(NCc3cnn(Cc4ccc(C(F)(F)F)nc4)c3)nc2N1C [Compound 195, (7S)-7,8-dimethyl-2-(((1-((6-(trifluoromethyl)pyridin-3-yl)methyl)-1H-pyrazol-4-yl)methyl)amino)-7,8-dihydropteridin-6(5H)-one]",300 to 1000 nM
5,"Cc1nc(NCc2ccnc(N3CCOCC3)c2)nc2c1NC(=O)[C@H](C)N2C [Compound 62, (S)-4,7,8-trimethyl-2-(((2-morpholinopyridin-4-yl)methyl)amino)-7,8-dihydropteridin-6(5H)-one]",≥ 5000 nM
6,"C[C@H]1C(=O)Nc2cnc(N[C@H]3C[C@H](Oc4ccc(F)cc4)C3)nc2N1C [Compound 240, (7S)-2-((trans-3-(4-fluorophenoxy)cyclobutyl)amino)-7,8-dimethyl-7,8-dihydropteridin-6(5H)-one]",1000 to 5000 nM
7,"CCN1C(=O)C(C)(C)N(CC)c2nc(NCc3cnn(Cc4cc(F)c(F)c(F)c4)c3)ncc21 [Compound 231, 5,8-diethyl-7,7-dimethyl-2-(((1-(3,4,5-trifluorobenzyl)-1H-pyrazol-4-yl)methyl)amino)-7,8-dihydropteridin-6(5H)-one]",< 300 nM
8,"Cc1nc(N[C@H](C)c2cnn(Cc3ccc(C(F)(F)F)nc3)c2)nc2c1NC(=O)[C@H](C)N2C [Compound 217, (7S)-4,7,8-Trimethyl-2-(((R)-1-(1-((6-(trifluoromethyl)pyridin-3-yl)methyl)-1H-pyrazol-4-yl)ethyl)amino)-7,8-dihydropteridin-6(5H)-one]",≥ 5000 nM
9,"Cc1nc(NCc2ccc(OCc3ccc(F)cc3)nc2)nc2c1NC(=O)[C@H](C)N2C [Compound 57, (7S)-2-(((6-((4-fluorobenzyl)oxy)pyridin-3-yl)methyl)amino)-4,7,8-trimethyl-7,8-dihydropteridin-6(5H)-one]",< 300 nM
10,"CC[C@H]1C(=O)Nc2c(C)nc(NCc3cnn(Cc4ccc(Cl)nc4)c3)nc2N1C [Compound 432, (7S)-2-(((1-((6-chloropyridin-3-yl)methyl)-1H-pyrazol-4-yl)methyl)amino)-7-ethyl-4,8-dimethyl-7,8-dihydropteridin-6(5H)-one]",< 300 nM
11,"Cc1nc(NCc2ccc(OCc3ccc(F)cc3)cn2)nc2c1NC(=O)[C@H](C)N2C [Compound 70, (S)-2-(((5-((4-fluorobenzyl)oxy)pyridin-2-yl)methyl)amino)-4,7,8-trimethyl-7,8-dihydropteridin-6(5H)-one]",300 to 1000 nM
12,"Cc1nc(N[C@H]2C[C@H](Oc3ccc(OCC(F)(F)F)nc3)C2)nc2c1N(C)C(=O)[C@H](C)N2C [Compound 346, (7S)-4,5,7,8-tetramethyl-2-((trans-3-((6-(2,2,2-trifluoroethoxy)pyridin-3-yl)oxy)cyclobutyl)amino)-7,8-dihydropteridin-6(5H)-one]",300 to 1000 nM
13,"Cc1nc(NCc2cnn(-c3cccc(C(F)(F)F)c3)c2)nc2c1NC(=O)[C@H](C)N2C [Compound 97, (7S)-4,7,8-trimethyl-2-(((1-(3-(trifluoromethyl)phenyl)-1H-pyrazol-4-yl)methyl)amino)-7,8-dihydropteridin-6(5H)-one]",< 300 nM
14,"Cc1nc(NCc2cnn(Cc3ccc4c(c3)OCO4)c2)nc2c1NC(=O)[C@H](C)N2C [Compound 181, (7S)-2-(((1-(benzo[d][1,3]dioxol-5-ylmethyl)-1H-pyrazol-4-yl)methyl)amino)-4,7,8-trimethyl-7,8-dihydropteridin-6(5H)-one]",< 300 nM
15,"Cc1nc(N[C@H]2C[C@@H](Sc3ccc(OC(F)(F)F)cc3)C2)nc2c1N(C)C(=O)[C@H](C)N2C [Compound 348, (7S)-4,5,7,8-tetramethyl-2-((cis-3-((4-(trifluoromethoxy)phenyl)thio)cyclobutyl)amino)-7,8-dihydropteridin-6(5H)-one]",1000 to 5000 nM
16,"Cc1nc(N[C@H]2C[C@@H](Sc3ccc(OC(F)(F)F)cc3)C2)nc2c1NC(=O)[C@H](C)N2C [Compound 336, (7S)-4,7,8-trimethyl-2-((cis-3-((4-(trifluoromethoxy)phenyl)thio)cyclobutyl)amino)-7,8-dihydropteridin-6(5H)-one]",300 to 1000 nM
17,"Cc1nc(NCc2cnn(Cc3ccc(Cl)nc3)c2)nc2c1NC(=O)[C@H](C(C)C)N2C [Compound 414, (7S)-2-(((1-((6-chloropyridin-3-yl)methyl)-1H-pyrazol-4-yl)methyl)amino)-7-isopropyl-4,8-dimethyl-7,8-dihydropteridin-6(5H)-one]",< 300 nM
18,"Cc1nc(NCc2cnn(CCc3cc(F)cc(F)c3)c2)nc2c1NC(=O)[C@H](C)N2C [Compound 107, (7S)-2-(((1-(3,5-difluorophenethyl)-1H-pyrazol-4-yl)methyl)amino)-4,7,8-trimethyl-7,8-dihydropteridin-6(5H)-one]",< 300 nM
19,"Cc1nc(N[C@H]2C[C@@H](Sc3cc(F)c(F)c(F)c3)C2)nc2c1N(C)C(=O)[C@H](C)N2C [Compound 331, (7S)-4,5,7,8-tetramethyl-2-((cis-3-((3,4,5-trifluorophenyl)thio)cyclobutyl)amino)-7,8-dihydropteridin-6(5H)-one]",< 300 nM

# Results, then the compound that gave them:
row,IC50,SMILES
1,300 to 1000 nM,"Cc1nc(N[C@H]2C[C@@H](Cn3ccc(C(F)(F)F)n3)C2)nc2c1NC(=O)[C@H](C)N2C [Compound 698, (S)-4,7,8-trimethyl-2-((cis-3-((3-(trifluoromethyl)-1H-pyrazol-1-yl)methyl)cyclobutyl)amino)-7,8-dihydropteridin-6(5H)-one]"
2,< 300 nM,"COc1ccc(OC[C@H]2C[C@@H](Nc3nc(C)c4c(n3)N(C)[C@@H](C(C)C)C(=O)N4)C2)cn1 [Compound 573, (S)-7-isopropyl-2-((cis-3-(((6-methoxypyridin-3-yl)oxy)methyl)cyclobutyl)amino)-4,8-dimethyl-7,8-dihydropteridin-6(5H)-one]"
3,≥ 5000 nM,"Cc1nc(N[C@H]2C[C@H](NS(=O)(=O)c3cc(F)c(F)c(F)c3)C2)nc2c1NC(=O)[C@H](C)N2C [Compound 482, 3,4,5-trifluoro-N-(trans-3-(((S)-4,7,8-trimethyl-6-oxo-5,6,7,8-tetrahydropteridin-2-yl)amino)cyclobutyl)benzenesulfonamide]"
4,< 300 nM,"CO[C@H](C)[C@H]1C(=O)Nc2c(C)nc(N[C@H]3C[C@H](Oc4cnc(C(F)(F)F)nc4)C3)nc2N1C [Compound 657, (S)-7-((R)—1-methoxyethyl)-4,8-dimethyl-2-((trans-3-((2-(trifluoromethyl)pyrimidin-5-yl)oxy)cyclobutyl)amino)-7,8-dihydropteridin-6(5H)-one]"
5,< 300 nM,"Cc1nc(NC2CN(C(=O)c3cc(C(F)(F)F)nn3C)C2)nc2c1NC(=O)[C@H](C(C)C)N2C [Compound 596, (S)-7-isopropyl-4,8-dimethyl-2-((1-(1-methyl-3-(trifluoromethyl)-1H-pyrazole-5-carbonyl)azetidin-3-yl)amino)-7,8-dihydropteridin-6(5H)-one]"
6,1000 to 5000 nM,"Cc1nc(N[C@H]2C[C@H](n3ccc(C(F)(F)F)n3)C2)nc2c1NC(=O)[C@H](C(C)C)N2C [Compound 730, (S)-7-isopropyl-4,8-dimethyl-2-((trans-3-(3-(trifluoromethyl)-1H-pyrazol-1-yl)cyclobutyl)amino)-7,8-dihydropteridin-6(5H)-one]"
7,< 300 nM,"Cc1nc(N[C@H]2C[C@@H](c3ccc(OC(F)(F)F)cc3)C2)nc2c1NC(=O)[C@H](C)N2C [Compound 507, (7S)-4,7,8-trimethyl-2-(((cis)-3-(4-(trifluoromethoxy)phenyl)cyclo-butyl)amino)-7,8-dihydropteridin-6(5H)-one]"
8,1000 to 5000 nM,"Cc1nc(N[C@H]2C[C@@H](NC(=O)c3cc(F)c(F)c(F)c3)C2)nc2c1NC(=O)[C@H](C)N2C [Compound 475, 3,4,5-trifluoro-N-(cis-3-(((S)-4,7,8-trimethyl-6-oxo-5,6,7,8-tetrahydropteridin-2-yl)amino)cyclobutyl)benzamide]"
9,300 to 1000 nM,"Cc1nc(NC2CN(C(=O)Cc3ccc(F)cc3F)C2)nc2c1NC(=O)[C@H](C(C)C)N2C [Compound 616, (S)-2-((1-(2-(2,4-difluorophenyl)acetyl)azetidin-3-yl)amino)-7-isopropyl-4,8-dimethyl-7,8-dihydropteridin-6(5H)-one]"
10,1000 to 5000 nM,"Cc1nc(NC2CN(C(=O)c3cnc(Cl)s3)C2)nc2c1NC(=O)[C@H](C(C)C)N2C [Compound 633, (S)-2-((1-(2-chlorothiazole-5-carbonyl)azetidin-3-yl)amino)-7-isopropyl-4,8-dimethyl-7,8-dihydropteridin-6(5H)-one]"
11,≥ 5000 nM,"Cc1cc(C(=O)N2CC(Nc3nc(C)c4c(n3)N(C)[C@@H](C(C)C)C(=O)N4)C2)on1 [Compound 620, (S)-7-isopropyl-4,8-dimethyl-2-((1-(3-methylisoxazole-5-carbonyl)azetidin-3-yl)amino)-7,8-dihydropteridin-6(5H)-one]"

# Same assay, conditions: Homo sapiens, COLO 205, 5 h, R-isomer at C2 (corresponding to C2 S-isomer); Colo 205 TCF/LEF luciferase reporter, 5 h; read-out: TCF reporter Colo205 IC50
row,IC50,SMILES
1,< 300 nM,CCN1C(=O)[C@@H](C)N(CC)c2nc(NCc3cnn(Cc4ccc(F)cc4)c3)ncc21 [Compound I-985]
